Assay results published in patent US9434711B2 (Janssen Pharmaceutica, NV, priority 2007, dated 2016).

Key:
Male Sprague Dawley rats [1] = assay: Reversal of Icilin-Induced Behaviors in Rats; assay type: in vivo; settings: Rattus norvegicus, po, 1 h, 1 h post-icilin; for inhibition in vivo at 30 mg/kg: 30 mg/kg p.o.
Procedure: Male Sprague Dawley rats (225-450 g, Charles River Labs, n=4-6/treatment) were used to evaluate the ability of selected compounds of the formula (I) to reverse icilin-induced “wet-dog” shakes. Icilin was administered in PEG-400 or 10% solutol/H2O, at 1.0 or 3.0 mg/kg, i.p. and spontaneous “wet-dog” shakes (WDS) were counted 10-20 minutes post-icilin. […] Results are presented as a percent inhibition of shakes, which was calculated as [1-(test compound WDS count/vehicle WDS count)]×100.

Male Sprague Dawley rats [2] = assay: Chronic Constriction Injury (CCI)-Induced Model of Neuropathic Pain, Acetone-Induced Hypersensitivity; assay type: in vivo, rat; settings: Rattus norvegicus; for inhibition in vivo at 3 mg/kg: 3 mg/kg p.o.; for inhibition in vivo at 10 mg/kg: 10 mg/kg p.o.
Description: Male Sprague Dawley rats (225-450 g; n=5-8/treatment) were used to evaluate the ability of selected compounds of the formula (I) to reverse CCI-induced cold hypersensitivity. Four loose ligatures of 4-0 chromic gut were surgically placed around the left sciatic nerve under inhalation anesthesia as described by Bennett et al (Bennett G J, Xie Y K. Pain 1988, 33(1): 87-107). Fourteen to 35 days following CCI surgery, subjects were placed in elevated observation chambers containing wire mesh floors and five applications of acetone (0.05 mL/application separated by approximately 5 minutes) were spritzed onto the plantar surface of the paw using a multidose syringe. An abrupt withdrawal or lifting of the paw was considered a positive response. The number of positive responses was recorded for each rat over the five trials. Following baseline withdrawal determinations, compounds of formula (I) are administered in an appropriate vehicle, such as hydroxypropyl-β-cyclodextrin (HP β CD), methylcellulose, Methocel, 10% Solutol, or H2O, or the like, by the appropriate route, i.p. or p.o. […] Results are presented as a percent inhibition of […], which was calculated for each subject as [1−(test compound withdrawals/pre-test withdrawals)]×100 and then averaged by treatment.

canine TRPM8 = canine TRPM8 (Canis lupus familiaris, UniProt Q1A7N1); assay: In Vitro Canine TRPM8 Functional Assay (Ca2+ fluorescence, icilin activation); assay type: cell-based; settings: for IC50: HEK293 cells stably expressing canine TRPM8, icilin activation, eight-point dose-response, read-out: IC50; for inhibition at 0.5 µM: compound at 0.5 μM, read-out: % Inh @ 0.5; for inhibition at 0.5 µM / inhibition at 0.2 µM: canine TRPM8, icilin activation; for inhibition at 0.2 µM: compound at 0.2 μM, read-out: % Inh @ 0.2
Procedure, shortened: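 HEK293 cells stably expressing canine TRPM8 loaded with Calcium 3 dye; compound added and Ca2+ fluorescence monitored 5 min before icilin at a final level giving ~80% maximal response, read on FLIPR or FDSS. EC50 or IC50 from eight-point dose-response, quadruplicate wells per point.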

Sprague-Dawley rats = assay: CFA-Induced Paw Radiant Heat Hypersensitivity; assay type: in vivo, rat; settings: dose 10 p.o., HPbCD, treatment time 100 min, Na salt form
Procedure: Intraplantar injection of complete Freund's adjuvant (CFA) in rodents results in a long-lasting inflammatory reaction, characterized by a pronounced hypersensitivity to both thermal and mechanical stimuli. This hypersensitivity peaks between 24-72 hours following injection and can last for several weeks. To assess whether test compounds of the formula (I) reverse established hypersensitivity, a 100 μL intraplantar injection of CFA (suspended in a 1:1 emulsion of saline and heat-killed Mycobacterium tuberculosis in mineral oil) can be injected into a single hind paw of Sprague-Dawley rats (typically males ranging from 150-350 g). This paradigm also may be conducted with a multiple dosing or a prophylactic dosing regime designed to alter the course of hyperalgesia development. This test predicts the analgesic, anti-allodynic and antihyperalgesic effect of numerous effective clinical agents, including acetaminophen, NSAIDS such as aspirin and ibuprofen, and opioids, such as morphine.
Each rat is placed in a test chamber on a warm glass surface and allowed to acclimate for approximately 10 minutes. A radiant thermal stimulus (beam of light) is then focused through the glass onto the plantar surface of each hind paw in turn. The thermal stimulus is automatically shut off by a photoelectric relay when the paw is moved or when the cut-off time is reached (20 seconds for radiant heat at […]). An initial (baseline) response latency to the thermal stimulus is recorded for each animal prior to the injection of CFA. Twenty-four hours following intraplantar CFA injection, the response latency of the animal to the thermal stimulus is then re-evaluated and compared to the animal's baseline response time. […] Immediately following the post-CFA latency assessment, test compound or vehicle (usually Solutol, hydroxypropyl methylcellulose, hydroxypropyl beta-cyclodextrin or PEG-400) is administered i.p. or p.o. to rats. Post-compound treatment withdrawal latencies are assessed at fixed time intervals, typically 30, 60 and 120 minutes. The percent reversal (% R) of hypersensitivity is calculated according to the following formula: % Reversal=(Treatment Response-CFA Response)/(Baseline Response-CFA Response)×100.

Male Sprague Dawley rats [3] = assay: Inhibition of Icilin-Induced "Wet-Dog" Shakes in Rats; assay type: in vivo, rat; settings: Rattus norvegicus, po, 2 h, Water, 120 min pre-icilin, Na salt form
Procedure: Male Sprague Dawley rats (220-450 g, Charles River Labs, n=6-9/treatment) were used to evaluate the ability of selected compounds of the formula (I) to block icilin-induced “wet-dog” shakes (WDS). Compounds of the formula (I) were administered in an appropriate vehicle, such as hydroxypropyl-β-cyclodextrin (HPβCD), methocellulose, 10% Solutol, or H2O, or the like, by the appropriate route, i.p. or p.o., 30-120 minutes before icilin. Icilin was administered in PEG-400 or 10% solutol/H2O, at 1.0 or 3.0 mg/kg, i.p. and spontaneous “wet-dog” shakes were counted 10-20 minutes post-icilin. Results are presented as a percent inhibition of shakes, which was calculated as [1-(test compound WDS count/vehicle WDS count)]×100.

Male Sprague Dawley rats [4] = assay: Rightward Shift of Icilin Dose Effect Curve in Rats; assay type: in vivo; settings: Rattus norvegicus, ip; icilin i.p., wet-dog shakes, no pretreatment; read-out: Icilin ED50, mg/kg, i.p., no pretreatment
Procedure: Male Sprague Dawley rats (200-400 g, Charles River Labs, n=6-9/treatment) were administered icilin in a suitable vehicle (e.g. PEG-400, 10% Solutol) at 0.1-30 mg/kg, i.p. Spontaneous “wet-dog” shakes were counted 10-20 minutes post-icilin in order to generate a icilin dose-effect curve. A compound of the present invention was administered orally in hydroxypropyl-β-cyclodextrin 60 minutes before icilin challenge to assess the compound's ability to inhibit spontaneous “wet-dog” shakes (WDS) produced by a range of icilin doses. The ED50 of the icilin dose-effect curve generated in the presence of TRPM8 antagonist may be compared to that generated in the presence of vehicle to determine the magnitude of rightward shift as shown below in Table 7.

[5] = po, 1 h, 30 mg/kg p.o., 10% Solutol, pretreatment 1 hr, CO2H form, read-out: Percent Inhibition
[6] = po, 1 h, 10% Solutol, pretreatment 1 hr, CO2H form, read-out: Percent Inhibition
[7] = po, 2 h, Water, pretreatment 2 hr, Na salt form, read-out: Percent Inhibition

Chain of canine TRPM8 (Q1A7N1 1-1104): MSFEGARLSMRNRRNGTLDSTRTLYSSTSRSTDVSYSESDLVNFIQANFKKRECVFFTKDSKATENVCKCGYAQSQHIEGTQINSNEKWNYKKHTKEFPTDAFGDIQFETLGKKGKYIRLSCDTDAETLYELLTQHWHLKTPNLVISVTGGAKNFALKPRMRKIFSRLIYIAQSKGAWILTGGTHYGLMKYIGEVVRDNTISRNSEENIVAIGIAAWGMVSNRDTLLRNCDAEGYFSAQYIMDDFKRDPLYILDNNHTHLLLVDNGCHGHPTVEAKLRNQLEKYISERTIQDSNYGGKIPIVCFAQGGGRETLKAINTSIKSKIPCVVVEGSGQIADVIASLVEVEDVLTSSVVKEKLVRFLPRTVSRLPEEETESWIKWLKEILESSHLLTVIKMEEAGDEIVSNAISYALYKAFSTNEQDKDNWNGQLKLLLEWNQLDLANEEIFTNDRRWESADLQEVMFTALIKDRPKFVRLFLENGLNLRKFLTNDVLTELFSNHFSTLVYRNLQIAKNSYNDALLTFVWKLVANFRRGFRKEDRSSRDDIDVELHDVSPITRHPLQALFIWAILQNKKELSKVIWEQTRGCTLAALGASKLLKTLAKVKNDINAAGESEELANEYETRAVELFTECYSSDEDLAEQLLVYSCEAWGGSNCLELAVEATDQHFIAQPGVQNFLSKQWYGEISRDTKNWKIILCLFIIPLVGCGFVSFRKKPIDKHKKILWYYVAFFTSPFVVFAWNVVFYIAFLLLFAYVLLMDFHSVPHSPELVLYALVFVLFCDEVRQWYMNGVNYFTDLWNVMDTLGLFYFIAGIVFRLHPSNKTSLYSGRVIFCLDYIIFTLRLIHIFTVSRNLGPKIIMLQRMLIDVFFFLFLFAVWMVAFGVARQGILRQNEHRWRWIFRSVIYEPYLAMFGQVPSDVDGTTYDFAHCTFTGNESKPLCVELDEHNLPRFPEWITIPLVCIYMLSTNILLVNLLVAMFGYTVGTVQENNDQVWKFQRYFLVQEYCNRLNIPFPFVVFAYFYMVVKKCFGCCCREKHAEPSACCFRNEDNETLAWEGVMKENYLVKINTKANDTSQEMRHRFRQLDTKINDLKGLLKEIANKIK

| Compound | inhibition in vivo at 30 mg/kg (Male Sprague Dawley rats [1]) | IC50 (canine TRPM8) | inhibition at 0.5 µM (canine TRPM8) | other results |
| --- | --- | --- | --- | --- |
| O=S(=O)(c1ccccc1)N(Cc1ccc(F)c(C(F)(F)F)c1)c1sc2ccccc2c1Cl [Compound 7, N-(3-Chloro-benzo[b]thiophen-2-yl)-N-(4-fluoro-3-trifluoromethyl-benzyl)-benzenesulfonamide] | 65% | 7.3 nM | 97% | inhibition in vivo at 30 mg/kg (Male Sprague Dawley rats [2]; ip, 2 h, 30 mg/kg i.p., 10% Solutol, pretreatment 2 hr, CO2H form, read-out: Percent Inhibition): 66%; inhibition in vivo at 30 mg/kg (Male Sprague Dawley rats [2]; [5]): 47% |
| Cc1c(N(Cc2cccc3cccnc23)S(=O)(=O)c2cccnc2)sc2ccccc12 [Compound 14, N-(3-Methyl-benzo[b]thiophen-2-yl)-N-(quinolin-8-ylmethyl)-pyridine-3-sulfonamide] | -16% | 18.9 nM | 99% | – |
| Cc1c(N(Cc2ccc(F)c(F)c2)S(=O)(=O)c2ccccc2)sc2ccccc12 [Compound 125, N-(3,4-Difluoro-benzyl)-N-(3-methyl-benzo[b]thiophen-2-yl)-benzenesulfonamide] | 39% | 5 nM | 99% | – |
| O=S(=O)(c1ccccc1)N(Cc1ccc(F)c(F)c1)c1sc2ccccc2c1Br [Compound 148, N-(3-Bromo-benzo[b]thiophen-2-yl)-N-(3,4-difluoro-benzyl)-benzenesulfonamide] | 33% | 2.1 nM | 98% | – |
| O=S(=O)(c1cccnc1)N(Cc1ccc(F)c(F)c1)c1sc2ccccc2c1Br [Compound 149, N-(3-Bromo-benzo[b]thiophen-2-yl)-N-(3,4-difluoro-benzyl)-pyridin-3-yl-sulfonamide] | -3% | 7.1 nM | 101% | inhibition at 0.2 µM (canine TRPM8): 102% |
| O=S(=O)(c1ccccc1)N(Cc1ccccn1)c1sc2ccccc2c1Br [Compound 168, N-(3-Bromo-benzo[b]thiophen-2-yl)-N-(pyridin-2-ylmethyl)-benzenesulfonamide] | -29% | 14.2 nM | 96% | – |
| O=S(=O)(c1ccccc1)N(Cc1ccc(OC(F)(F)F)cc1)c1sc2ccccc2c1Br [Compound 174, N-(3-Bromo-benzo[b]thiophen-2-yl)-N-(4-trifluoromethoxy-benzyl)-benzenesulfonamide] | 45% | 2.5 nM | 99% | – |
| O=S(=O)(c1ccccc1)N(Cc1ccc(F)c(C(F)(F)F)c1)c1sc2ccccc2c1Br [Compound 177, N-(3-Bromo-benzo[b]thiophen-2-yl)-N-(4-fluoro-3-trifluoromethyl-benzyl)-benzenesulfonamide] | 66% | 5.7 nM | 96% | inhibition in vivo at 3 mg/kg (Male Sprague Dawley rats [1]; 3 mg/kg p.o.): 15%; inhibition in vivo at 10 mg/kg (Male Sprague Dawley rats [1]; 10 mg/kg p.o.): 53%; inhibition in vivo at 16.6 mg/kg (Male Sprague Dawley rats [1]; 16.6 mg/kg p.o.): 54%; inhibition in vivo at 100 mg/kg (Male Sprague Dawley rats [1]; 100 mg/kg p.o.): 52%; inhibition in vivo at 30 mg/kg (Male Sprague Dawley rats [2]; ip, 3 h, 30 mg/kg i.p., 10% Solutol, pretreatment 3 hr, CO2H form, read-out: Percent Inhibition): 60%; inhibition in vivo at 3 mg/kg (Male Sprague Dawley rats [2]; [6]): 23%; inhibition in vivo at 10 mg/kg (Male Sprague Dawley rats [2]; [6]): 49%; inhibition in vivo at 30 mg/kg (Male Sprague Dawley rats [2]; [5]): 46%; inhibition in vivo at 100 mg/kg (Male Sprague Dawley rats [2]; po, 1 h, 100 mg/kg p.o., 10% Solutol, pretreatment 1 hr, CO2H form, read-out: Percent Inhibition): 70% |
| O=S(=O)(c1cccnc1)N(Cc1ccc(F)c(C(F)(F)F)c1)c1sc2ccccc2c1Br [Compound 188, N-(3-Bromo-benzo[b]thiophen-2-yl)-N-(4-fluoro-3-trifluoromethyl-benzyl)-pyridin-3-yl-sulfonamide] | 7% | 12.2 nM | 101% | inhibition at 0.2 µM (canine TRPM8): 99% |
| CC(C)(O)c1c(N(Cc2ccc(F)c(C(F)(F)F)c2)S(=O)(=O)c2ccc(C(=O)O)cc2)sc2ccccc12 [Compound 361, N-(4-Fluoro-3-trifluoromethylbenzyl)-N-(3-(1-hydroxy-1-methyl-ethyl)-benzo[b]thiophen-2-yl)-4-carboxy-benzenesulfonamide] | – | 0.8 nM | – | Percent Reversal (Sprague-Dawley rats): 28%; inhibition in vivo at 3 mg/kg (Male Sprague Dawley rats [2]; [7]): 9%; inhibition in vivo at 10 mg/kg (Male Sprague Dawley rats [2]; [7]): 17%; inhibition in vivo at 30 mg/kg (Male Sprague Dawley rats [2]; po, 2 h, 30 mg/kg p.o., Water, pretreatment 2 hr, Na salt form, read-out: Percent Inhibition): 91%; inhibition in vivo at 30 mg/kg (Male Sprague Dawley rats [2]; po, 4 h, 30 mg/kg p.o., Water, pretreatment 4 hr, Na salt form, read-out: Percent Inhibition): 74%; ED50 (Male Sprague Dawley rats [2]; po, Water, pretreatment 2 hr, Na salt form): 13 mg/kg; inhibition at 0.2 µM (canine TRPM8): 93%; ED50 (Male Sprague Dawley rats [3]): 4.5 mg/kg |
| O=C1NC(c2cccc([N+](=O)[O-])c2)=CCN1c1ccccc1O [Icilin, reference compound] | – | – | – | ED50 (Male Sprague Dawley rats [4]): 0.75 mg/kg |
